Source: patent US20220055989A1, “CONDENSED PYRROLES AS NOVEL BROMODOMAIN INHIBITORS” (ALBERT LUDWING UNIVERSITÄT FREIBURG, priority 2018, published 2022)
Where two headings read alike, the source gives them in different places.

What was measured:
Format in all cases: binding
BRD9 = biological target: T1, BRD9 (Homo sapiens, UniProt Q9H8M2); experiment: BROMOscan Kd determination BRD9
T1 construct: T7 phage strains displaying bromodomains were grown; host or cells: T7 phage in E. coli derived from BL21
T1 sequence (Q9H8M2 136-240 limits assumed): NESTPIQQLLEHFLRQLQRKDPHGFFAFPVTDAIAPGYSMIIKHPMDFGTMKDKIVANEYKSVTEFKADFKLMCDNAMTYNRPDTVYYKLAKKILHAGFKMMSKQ
Procedure: (§1) Bromodomain profiling was carried out on the basis of BROMOscan™. This platform accounted for the indirect determination of the dissociation constants between 19 bromodomains and the compound of formula (13), by binding competition against a reference immobilized ligand. Compounds that bind the bromodomain prevent its binding to the immobilized ligand thus reducing the amount of protein captured. […] Hits are identified by measuring the amount of bromodomain captured in test versus control samples. Bromodomain assays for Kd determination: T7 phage strains displaying bromodomains were grown in parallel in 24-well blocks in an E. coli host derived from the BL21 strain. E. coli were grown to log-phase and infected with T7 phage from a frozen stock (multiplicity of infection=0.4) and incubated with shaking at 32° C. until lysis (90-150 minutes). The lysates were centrifuged (5,000×g) and filtered (0.2 μm) to remove cell debris. […] The liganded beads were blocked with excess biotin and washed with blocking buffer (SeaBlock (Pierce), 1% BSA, 0.05% Tween 20, 1 mM DTT) to remove unbound ligand and to reduce non-specific phage binding. […] Test compounds were prepared as 1000× stocks in 100% DMSO. Kds were determined using an 11-point 3-fold compound dilution series with one DMSO control point. All compounds for Kd measurements are distributed by acoustic transfer (non-contact dispensing) in 100% DMSO. The compounds were then diluted directly into the assays such that the final concentration of DMSO was 0.09%. All reactions performed in polypropylene 384-well plates. Each was a final volume of 0.02 ml. […] The bromodomain concentration in the eluates was measured by qPCR. […] All compounds for Kd measurements are distributed by acoustic transfer (non-contact dispensing) in 100% DMSO. The compounds were then diluted directly into the assays such that the final concentration of DMSO was 0.09%. Most Kds were determined using a compound top concentration=10,000 nM. If the initial Kd determined was <0.169 nM (the lowest concentration tested), the measurement was repeated with a serial dilution starting at a lower top concentration. Binding Constants (Kds): Binding constants (Kds) were calculated with a standard dose-response curve using the Hill equation: The Hill Slope was set to −1. Curves were fitted using a non-linear least square fit with the Levenberg-Marquardt algorithm.

BRPF1B = biological target: T2, BRPF1B (Homo sapiens, UniProt P55201); experiment: Dissociation constant KD BRPF1B
T2 construct: dissociation constants KD for two bromodomains (BRD4(1) and BRPF1B)
T2 sequence (P55201 628-732 limits assumed): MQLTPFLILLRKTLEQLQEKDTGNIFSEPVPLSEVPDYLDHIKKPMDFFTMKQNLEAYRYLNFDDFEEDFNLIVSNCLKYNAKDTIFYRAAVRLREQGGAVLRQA

BRD4(1) [1] = biological target: T3, BRD4(1) (Homo sapiens, UniProt O60885); experiment: Isothermal titration calorimetry, dissociation constant KD BRD4(1)
T3 construct: BRD4-BD1 was expressed and purified as described previously; made in house
Procedure: BRD4-BD1 was expressed and purified as described previously (Filippakopoulos et al, (2012), Cell 149(1): […]) with the exception of the final buffer for crystallization and ITC analysis (20 mM Hepes/NaOH pH 7.5, 150 mM NaCl). Crystals were grown in the presence of 3.5 M Na-Formate (pH 7.5) at a protein concentration of 10 mg/ml and a ligand concentration of 2 mM added directly to the protein prior to crystallization from a 100 mM stock solution in DMSO. Data were collected at 100K using either a Rigaku HF-007 rotating anode X-ray generator equipped with VariMaxHF optics and a Saturn944 CCD detector or a mar345 image plate respectively at λ=1.54179 Å or at the PXI beamline at the Swiss Light Source at λ=1.000 Å with a Pilatus detector. Data processing and reduction was done with iMOSFLM (Leslie AGW PH (2007), Evolving Methods for Macromolecular Crystallography 245, 41.51), POINTLESS, and SCALA (Kabsch W (2010) Xds. Acta crystallographica. Section D, Biological crystallography 66(Pt 2):125-132; Bruker (2008) SADABS, SAINT and XPREP (Bruker AXS Inc., Madison, Wis., USA); Collaborative Computational Project N (1994) The CCP4 suite: programs for protein crystallography, Acta crystallographica, Section D, Biological crystallography 50(Pt 5):760-763), or with XDS, XSCALE, XDSCONV (Evans P (2006), Scaling and assessment of data quality, Acta crystallographica, Section D, Biological crystallography 62(Pt 1):72-82), and XPREP (Evans P R (2011), An introduction to data reduction: space-group determination, scaling and intensity statistics, Acta crystallographica, Section D, Biological crystallography 67(Pt 4):282-292).
Data were obtained in discrete titration experiments with an injection volume of 12 μl per injection. Subsequently, the heats per injection were calculated as integrals and after normalization against the molar concentrations plotted against the molar ratio as implemented in Microcal Origin. Finally, data were fitted according to a single set of sites binding model with
The dissociation constant Kd, is commonly used to describe the affinity between a ligand L and a protein, i.e. how tightly a ligand binds to a particular protein. The dissociation constant has molar units which correspond to the concentration of ligand at which the binding site on a particular protein is half occupied, i.e. the concentration of the ligand at which the concentration of protein with ligand bound equals the concentration of protein with no ligand bound. The smaller the dissociation constant, the higher the affinity between ligand and protein.

BRPF1 = biological target: T4, BRPF1 (Homo sapiens, UniProt P55201); experiment: BROMOscan Kd determination BRPF1
T4 construct: T7 phage strains displaying bromodomains were grown; host or cells: T7 phage in E. coli derived from BL21
T4 sequence (P55201 628-732 limits assumed): T2 sequence (P55201 628-732 limits assumed)
Procedure: as §1

CECR2 = biological target: T5, CECR2 (Homo sapiens, UniProt Q9BXF3); experiment: BROMOscan Kd determination CECR2
T5 construct: T7 phage strains displaying bromodomains were grown; host or cells: T7 phage in E. coli derived from BL21
T5 sequence (Q9BXF3 434-538 limits assumed): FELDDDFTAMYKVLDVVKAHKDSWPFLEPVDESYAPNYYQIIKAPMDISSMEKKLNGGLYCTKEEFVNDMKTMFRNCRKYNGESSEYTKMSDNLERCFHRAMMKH
Procedure: as §1

BRD7 = biological target: T6, BRD7 (Homo sapiens, UniProt Q9NPI1); experiment: BROMOscan Kd determination BRD7
T6 construct: T7 phage strains displaying bromodomains were grown; host or cells: T7 phage in E. coli derived from BL21
T6 sequence (Q9NPI1 131-235 limits assumed): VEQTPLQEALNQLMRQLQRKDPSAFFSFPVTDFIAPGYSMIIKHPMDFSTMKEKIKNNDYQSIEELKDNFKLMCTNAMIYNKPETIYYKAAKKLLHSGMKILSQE
Procedure: as §1

BRD4(1) [2] = biological target: T3, BRD4(1); experiment: BROMOscan Kd determination BRD4(1)
Procedure: as §1

BRDT(1) = biological target: T7, BRDT(1) (Homo sapiens, UniProt Q58F21); experiment: BROMOscan Kd determination BRDT(1)
T7 construct: T7 phage strains displaying bromodomains were grown; host or cells: T7 phage in E. coli derived from BL21
Procedure: as §1

BRD2(2) = biological target: T8, BRD2(2) (Homo sapiens, UniProt P25440); experiment: BROMOscan Kd determination BRD2(2)
T8 construct: T7 phage strains displaying bromodomains were grown in parallel; made in house; host or cells: T7 phage grown in an E. coli host derived from the BL21 strain
T8 sequence (P25440 344-453 limits assumed): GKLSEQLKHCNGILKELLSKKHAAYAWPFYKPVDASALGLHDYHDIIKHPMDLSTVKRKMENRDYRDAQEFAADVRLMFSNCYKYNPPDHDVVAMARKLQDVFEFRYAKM
Procedure: Bromodomain profiling was carried out on the basis of BROMOscan™. This platform accounted for the indirect determination of the dissociation constants between 19 bromodomains and the compound of formula (13), by binding competition against a reference immobilized ligand. Compounds that bind the bromodomain prevent its binding to the immobilized ligand thus reducing the amount of protein captured. […] Hits are identified by measuring the amount of bromodomain captured in test versus control samples. Bromodomain assays for Kd determination: T7 phage strains displaying bromodomains were grown in parallel in 24-well blocks in an E. coli host derived from the BL21 strain. E. coli were grown to log-phase and infected with T7 phage from a frozen stock (multiplicity of infection=0.4) and incubated with shaking at 32° C. until lysis (90-150 minutes). The lysates were centrifuged (5,000×g) and filtered (0.2 μm) to remove cell debris. […] Kds were determined using an 11-point 3-fold compound dilution series with one DMSO control point. […] The bromodomain concentration in the eluates was measured by qPCR. […] Most Kds were determined using a compound top concentration=10,000 nM. […] Binding Constants (Kds): Binding constants (Kds) were calculated with a standard dose-response curve using the Hill equation: The Hill Slope was set to −1. […]

| Kd (BRD9; Table 3 compound 27) [nM] | Kd (BRPF1B) [nM] | Kd (BRD4(1) [1]) [nM] | Kd (BRPF1; Table 3 compound 27) [nM] | Kd (CECR2; Table 3 compound 27) [nM] | Kd (BRD7; Table 3 compound 27) [nM] | Kd (BRD4(1) [2]; Table 3 compound 27) [nM] | Kd (BRDT(1); Table 3 compound 27) [nM] | Kd (BRD9) [nM] | Kd (BRPF1) [nM] | Kd (CECR2) [nM] | Kd (BRD7) [nM] | Kd (BRD4(1) [2]) [nM] | Kd (BRDT(1)) [nM] | Kd (BRD2(2)) [nM] | Compound |
| --- | --- | --- | --- | --- | --- | --- | --- | --- | --- | --- | --- | --- | --- | --- | --- |
| 800 | > 10000 | > 10000 | > 10000 | > 10000 | > 10000 | > 10000 | > 10000 | – | – | – | – | – | – | – | CCCCc1[nH]c(-c2cc(N)ccc2Cl)c2c1C(=O)CCCC2 [Compound 27, 1-(5-Amino-2-chlorophenyl)-3-butyl-5,6,7,8-tetrahydrocyclohepta[c]pyrrol-4(2H)-one] |
| – | 7000 | 6900 | – | – | – | – | – | 150 | 7000 | > 10000 | 1100 | 6900 | 6100 | – | CCCc1[nH]c(-c2cc(N)ccc2Cl)c2c1C(=O)CCCC2 [Compound 26, 1-(5-Amino-2-chlorophenyl)-3-propyl-5,6,7,8-tetrahydrocyclohepta[c]pyrrol-4(2H)-one] |
| – | 166 | – | – | – | – | – | – | 67 | 130 | 970 | 430 | 250 | 240 | 200 | Cc1[nH]c(-c2cc(N)ccc2Cl)c2c1C(=O)CCCC2 [Compound 23] |
| – | – | 77.8 | – | – | – | – | – | 67 | 520 | – | 85 | 60 | 670 | 290 | COc1ccc(S(=O)(=O)N2CCOCC2)cc1NC(=O)c1[nH]c(C)c2c1CCCCC2=O [Compound 13, N-(2-methoxy-5-(morpholinosulfonyl)phenyl)-3-methyl-4-oxo-2,4,5,6,7,8-hexahydrocyclohepta[c]pyrrole-1-carboxamide] |
